System: anesthetized rats
Test: Cardiovascular effects (blood pressure, heart rate) in anesthetized rats pretreated with heparin and histamine antagonists or NO synthase inhibitor
Assay type: in vivo, rat
Details: for blocking of blood pressure reductions caused by IV infusion of Compound 100: pretreatment at T = -15 minutes, Compound 100 at 8 and 16 mg/kg, anesthetized rat
Protocol: A purpose of this study was to evaluate the role of histamine or nitric oxide (NO) on the hemodynamic effects of Compound 100 administered by a 10 minute IV infusion in rats by pretreatment with an H1 receptor blocker (diphenhydramine; DPH), an H2 receptor blocker (cimetidine; CIM), or an NO synthase inhibitor (L-NAME). Surgically prepared animals (jugular vein catheter for test article administration and carotid artery catheter for blood pressure/heart rate measurement) were purchased from Charles River Laboratories, Raleigh, N.C. Animals were anesthetized on the day of experimentation with isoflurane (1.8-4%). Blood pressure and heart rate data were collected on a Grass Polygraph recorder. Groups of three or four animals were administered two pretreatments followed by the administration of the vehicle or Compound 100. Dose groups are described in Table 1. Treatment 1 was administered at T=−15 minutes as an intravenous administration of saline, cimetidine or L-Name, a subcutaneous dose of diphenhydramine or a combination of diphenhydramine (s.c.) and cimetidine (i.v.). Saline or heparin were administered at T=−3 minutes by intravenous administration (Treatment 2). Treatment 3 was Compound 100 or sterile water (vehicle) which was administered by a 10 minute intravenous infusion. Blood pressure and heart rate were recorded prior to Treatment 1, 5 and 10 minutes after Treatment 1, 2 minutes following Treatment 2, and at 1, 15, 25, 40, and 70 minutes following Treatment 3. Each recording interval was approximately 1 minute long. [table]

Structure (SMILES) | blocking of blood pressure reductions caused by IV infusion of Compound 100 | blood pressure following administration of L-NAME, prior to dosing of test agent (L-NAME 100 mg/kg i.v., before Compound 100)
CN(C)CCOC(c1ccccc1)c1ccccc1 [diphenhydramine] | effectively blocks blood pressure reductions | 
CN/C(=N/CCSCc1nc[nH]c1C)NC#N [Cimetidine, cimetidine] | only prevented blood pressure reductions at the 8 mg/kg dose | 
COC(=O)[C@@H](N)CCCNC(=N)N[N+](=O)[O-] [L-NAME] | ineffective at both Compound 100 dosages | increases in blood pressure were evident

Source: patent US20140162955A1, “Antagonizing Heparin With Salicylamide Compounds And Histamine Blocking Agents” (CELLCEUTIX CORPORATION, priority 2012, published 2014)
